Experimental data as given in US12655139B2, “Isoxazolidines as RIPK1 inhibitors and use thereof” (SANOFI, priority 2020, dated 2026).
Counter-ions that a name gives are not always drawn. Like-named read-outs stand apart in the source and are kept apart here.

Columns and labels:
[1] = target: T1, hRIPK1 (aa 1-375) fusion protein (Homo sapiens, UniProt Q13546); assay: ADP-Glo kinase assay, RIPK1 autophosphorylation; assay type: biochemical
T1 construct: hRIPK1 (aa 1-375) fusion protein
T1 sequence (Q13546 1-375): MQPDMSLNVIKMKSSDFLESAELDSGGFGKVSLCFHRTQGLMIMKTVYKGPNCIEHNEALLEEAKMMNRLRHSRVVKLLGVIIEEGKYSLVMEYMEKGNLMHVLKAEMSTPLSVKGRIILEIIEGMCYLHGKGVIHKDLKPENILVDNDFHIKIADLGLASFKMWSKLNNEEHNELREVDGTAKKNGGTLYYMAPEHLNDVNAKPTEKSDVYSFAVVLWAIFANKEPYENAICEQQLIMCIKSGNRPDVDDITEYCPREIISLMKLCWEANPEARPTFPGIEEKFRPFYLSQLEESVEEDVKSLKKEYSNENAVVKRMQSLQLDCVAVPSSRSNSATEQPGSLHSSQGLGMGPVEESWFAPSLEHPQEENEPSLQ

U937 cells = assay: Cellular assay in U937 cells on cell death (necroptosis), TNFα/zVAD.fmk; assay type: cell-based; details: Homo sapiens
How it was run: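 U937 cells with 100 ng/ml TNFα plus 50 μM zVAD.fmk (pre-addition suspension levels) received 10 compound concentrations (10 μM–0.26 nM or 1 μM–0.07 nM) for 18–24 h at 37 °C. Live cells were read by MTS formazan absorbance at 490 nm after 4 h. % inhibition is relative to the maximal value without TNFα/zVAD.fmk.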

[2] = Pharmacokinetic studies in mice, oral application; assay type: in vivo; details: male, C57BL/6, brain / plasma; mouse, 2 h, oral 30 mg/kg; read-out: Mouse PK brain/blood ratio
Description: Pharmacokinetic Studies in Mice
A suspension of the respective test articles (30 mg/kg, 10 ml/kg, 3 mg/ml) was prepared in 0.6% methyl cellulose (MC) by thorough mixing of the fine solid with the freshly made and filtered MC solution and administered to 24 non-fasted male C57BL/6 mice (20-25 g) by gavage. Terminal blood sampling (with the addition of K2-EDTA) was performed at 0.25, 0.5, 1, 2, 4, 6, 8 and 24 h post admin. Plasma was generated by centrifugation and deep-frozen (−20° C.). In addition, after 2 h, brain and liver were removed from the respective 3 mice. Additional plasma was collected from terminal blood. The organs were pooled, homogenized and the homogenate extracted with an acetonitrile-water mixture prior to measurement by HPLC-MS/MS. The brain/plasma ratio was determined at 2 h by dividing the brain concentration at 2 h through the respective value for the plasma concentration at 2 h.
Ex. 004: 21 mice were used in the study, without the 6 h sampling time. The same study design was applied.
A suspension of the respective test articles (30 mg/kg, 10 ml/kg, 3 mg/ml) was prepared in freshly prepared and filtered 0.6% methyl cellulose solution by wet-milling using Retsch MM 301 mixer mill (10 min, room temperature) and administered to 6 non-fasted male C57BL/6 mice (20-25 g) by gavage. Serial sampling of blood (with the addition of K3-EDTA) was performed at 0.25, 0.5, 1, 2, 4, 6, 8 and 24 h post admin. The blood samples were diluted (10 μl blood were added to a mixture of 90 μl 25% acetonitrile in water) and deep-frozen (−20° C.). After 2 h, 3 of the 6 animals were sacrificed and brain and liver taken off. Additional plasma was prepared from terminal blood. The organs were homogenized and the homogenate extracted with an acetonitrile-water mixture prior to measurement by HPLC-MS/MS. The brain/plasma ratio was determined at 2 h by dividing the brain concentration at 2 h through the respective value for the plasma concentration at 2 h.

[3] = U-937, Comparator table 5, read-out: U937 IC50 (uM) Mean
[4] = U-937, Table 2, read-out: U937 IC50

IC50 ([1]; Comparator table 5) [nM]	Kp at 2 h [2]	IC50 ([1]; Table 1) [nM]	Compound	IC50 (U937 cells; [3]) [µM]	IC50 (U937 cells; [4]) [µM]
10	1.1		NC(=O)c1cc(N2CCC(C(=O)N3OCC[C@H]3c3cc(F)cc(F)c3)CC2)ncn1 [D, reference compound]	0.004	
12	0.82		N#Cc1cc(N2CCC(C(=O)N3OCC[C@H]3c3cc(F)cc(F)c3)CC2)ncn1 [A, reference compound]	0.003	
		20.8	N#Cc1cncc([C@@H]2CCON2C(=O)C2(F)CCN(c3ncc(F)c(C(N)=O)n3)CC2)c1 [Ex. 059]		0.0507
		132	Cc1coc([C@@H]2CCON2C(=O)C2CCN(c3cc(C#N)ncn3)CC2)c1 [compound 152, (S)-6-(4-(3-(4-methylfuran-2-yl)isoxazolidine-2-carbonyl)piperidin-1-yl)pyrimidine-4-carbonitrile 2,2,2-trifluoroacetate salt]		0.128
		62.7	N#Cc1cncc([C@@H]2CCON2C(=O)C2CCN(c3cc(C(N)=O)ccn3)CC2)c1 [Ex. 026]		1.9
		297	N#Cc1cncc([C@@H]2CCON2C(=O)C2CCN(c3ccnc(C(N)=O)n3)CC2)c1 [Ex. 156]		0.927
		18.8	N#Cc1nc(N2CCC(C(=O)N3OCC[C@H]3c3cnccn3)CC2)ncc1F [compound 120, 5-fluoro-2-[4-[(3S)-3-pyrazin-2-ylisoxazolidine-2-carbonyl]-1-piperidyl]pyrimidine-4-carbonitrile]		0.00169
		32	Cc1nc(Cl)nc(N2CCC(C(=O)N3OCC[C@H]3c3cnccn3)CC2)n1 [Ex. 180]		1.05
		28.1	Cc1ncc([C@@H]2CCON2C(=O)C2CCN(c3cc(C#N)ncn3)CC2)cc1F [compound 138, (S)-6-(4-(3-(5-fluoro-6-methylpyridin-3-yl)isoxazolidine-2-carbonyl)piperidin-1-yl)pyrimidine-4-carbonitrile]		0.0972
	1.5		N#Cc1cc(N2CCC(C(=O)N3N=CC[C@H]3c3cc(F)cc(F)c3)CC2)ncn1 [G, reference compound]	0.002	
		797	NC(=O)c1cc(N2CCC(C(=O)N3OCCC3C3CCCOC3)CC2)ncn1 (racemic) [Ex. 023*, 6-[4-[3-Tetrahydropyran-3-ylisoxazolidine-2-carbonyl]-1-piperidyl]pyrimidine-4-carboxamide TFA salt]		4.67
		32.6	N#Cc1cncc([C@@H]2CCON2C(=O)C2CCN(c3cc(C(N)=O)ncn3)CC2)c1 [Ex. 001]		0.133
		17500	O=C(O)c1nc(Cl)ncc1N1CCC(C(=O)N2OCC[C@H]2c2cnccn2)CC1 [Ex. 164]		1.97
		4.16	N#Cc1cncc([C@@H]2CCON2C(=O)[C@H]2CCN(c3nccc(C(N)=O)n3)C[C@@H]2F)c1 [Ex. 093]		0.0193
		20.4	COc1nc(N2CCC(C(=O)N3OCC[C@H]3c3cncnc3)CC2)ncc1F [Ex. 064]		0.0642
		33.6	CCOC(=O)N1CC(NC(=O)c2ccnc(N3CCC(C(=O)N4OCC[C@H]4c4cncc(C#N)c4)CC3)n2)C1 [Ex. 088]		0.158
		12.6	Cc1cnc([C@@H]2CCON2C(=O)C2CCN(c3ncc(F)c(C(N)=O)n3)CC2)cn1 [compound 90, 5-fluoro-2-[4-[(3S)-3-(5-methylpyrazin-2-yl)isoxazolidine-2-carbonyl]-1-piperidyl]pyrimidine-4-carboxamide]		0.0381

IC50 ([1]; Comparator table 5) [nM]	Kp at 2 h [2]	IC50 ([1]; Table 1) [nM]	Compound	IC50 (U937 cells; [3]) [µM]	IC50 (U937 cells; [4]) [µM]
		102	Cc1coc([C@@H]2CCON2C(=O)C2CCN(c3cc(C(N)=O)ncn3)CC2)c1 [compound 153, (S)-6-(4-(3-(4-methylfuran-2-yl)isoxazolidine-2-carbonyl)piperidin-1-yl)pyrimidine-4-carboxamide 2,2,2-trifluoroacetate salt]		0.0998
		247	NC(=O)c1cncc(C2CCON2C(=O)C2CCN(c3cc(C(N)=O)ncn3)CC2)c1 (racemic) [Ex. 030*]		4.17
		64.9	Cn1ccc(C2CCON2C(=O)C2CCN(c3nccc(C#N)n3)CC2)n1 (racemic) [Example 007, 2-[4-[3-(1-methylpyrazol-3-yl)isoxazolidine-2-carbonyl]-1-piperidyl] pyrimidine-4-carbonitrile]		2.42
		3.26	Nc1nc(Cl)nc(N2CCC(C(=O)N3OCC[C@H]3c3cnccn3)CC2)n1 [Ex. 184]		0.00179
		42.5	N#Cc1ccnc(N2CCC(C(=O)N3OCC[C@H]3c3cncc(N4CCC4=O)c3)CC2)n1 [Ex. 056, 2-[4-[(3S)-3-[5-(2-Oxoazetidin-1-yl)-3-pyridyl]isoxazolidine-2-carbonyl]-1-piperidyl]pyrimidine-4-carbonitrile]		2.2
		15.7	Cc1ncc([C@@H]2CCON2C(=O)C2CCN(c3nccc(C(N)=O)n3)CC2)cc1C#N [Ex. 081]		0.0297
		180	NC(=O)c1cc(N2CCC(C(=O)N3OCCC3c3cncc(CO)c3)CC2)ncn1 (racemic) [Ex. 032*, 6-[4-[3-[5-(Hydroxymethyl)-3-pyridyl]isoxazolidine-2-carbonyl]-1-piperidyl]pyrimidine-4-carboxamide TFA salt]		2.44
		11	N#Cc1cncc([C@@H]2CCON2C(=O)C2CCN(c3ncnc(C(N)=O)c3F)CC2)c1 [Ex. 073]		0.103
		26	N#Cc1cncc([C@@H]2CCON2C(=O)[C@H]2CCN(c3nccc(C(N)=O)n3)C[C@H]2F)c1 (single isomer, unassigned) [compound 96]		0.204
		17.3	N#CCOc1nc(N2CCC(C(=O)N3OCC[C@H]3c3cncc(C#N)c3)CC2)ncc1F [Ex. 028]		0.00105
		23.8	N#Cc1cncc([C@@H]2CCON2C(=O)C2CCN(c3nccc(C(N)=O)n3)CC2)c1 [compound 4]		0.0221
		51.5	N#Cc1ccnc(N2CCC(C(=O)N3OCCC3c3cncc(CO)c3)CC2)n1 (racemic) [Ex. 031*]		0.395
		21.6	Cc1ncc([C@@H]2CCON2C(=O)C2CCN(c3nccc(C(N)=O)n3)CC2)cc1F [compound 137, 2-[4-[(3S)-3-(5-fluoro-6-methyl-3-pyridyl)isoxazolidine-2-carbonyl]-1-piperidyl]pyrimidine-4-carboxamide]		0.0165
		20.1	Cc1cc([C@@H]2CCON2C(=O)C2CCN(c3nccc(C#N)n3)CC2)co1 [compound 162, (S)-2-(4-(3-(5-methylfuran-3-yl)isoxazolidine-2-carbonyl)piperidin-1-yl)pyrimidine-4-carbonitrile]		0.00541
		15.3	Cc1ncc([C@@H]2CCON2C(=O)C2CCN(c3ncc(F)c(C(N)=O)n3)CC2)cc1C#N [Ex. 085]		0.0206
		25	N#Cc1cncc([C@@H]2CCON2C(=O)C2CCN(c3cnc(C(N)=O)cn3)CC2)c1 [Ex. 072]		0.554
		> 33000	NC(=O)c1ccnc(N2CCC(C(=O)N3OCCC3c3cncc(F)c3)CC2)n1 (single isomer, unassigned) [Ex. 069]		> 10
